Assay results: the supplement of paper PMC6045584
± gives the standard deviation of the averaged measurements.

Assays:
SOTRASTAURIN/AEB071 = compound: CN1CCN(c2nc(C3=C(c4c[nH]c5ccccc45)C(=O)NC3=O)c3ccccc3n2)CC1 [SOTRASTAURIN/AEB071]; test: surviving fraction relative to DMSO-only wells; higher = less growth inhibition; conditions: exposure time: 5 days
Summary of the method: (§1)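 Viability was determined by CellTiter-Glo luminescence, expressed as surviving fraction normalised to the median of DMSO-only wells. The cells were log-phase tumour cell lines seeded at 250–500 per well in 384-well plates and, after 24 hours, exposed continuously for five days to inhibitors at 0.5, 1, 5, 10, 50, 100, 500 and 1000 nM. Three screens per line were run, keeping only lines with replicate Pearson r >0.7 and median Z' >0.3.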

ABIRATERONE = compound: C[C@]12CC[C@H](O)CC1=CC[C@@H]1[C@@H]2CC[C@]2(C)C(c3cccnc3)=CC[C@@H]12 [ABIRATERONE]; test: as above; conditions: exposure time: 5 days
Summary of the method: as §1

Row | Test System | surviving fraction (SOTRASTAURIN/AEB071; 0.5 nM) | surviving fraction (SOTRASTAURIN/AEB071; 1 nM) | surviving fraction (SOTRASTAURIN/AEB071; 5 nM) | surviving fraction (SOTRASTAURIN/AEB071; 10 nM) | surviving fraction (SOTRASTAURIN/AEB071; 50 nM) | surviving fraction (SOTRASTAURIN/AEB071; 100 nM) | surviving fraction (SOTRASTAURIN/AEB071; 500 nM) | surviving fraction (SOTRASTAURIN/AEB071; 1000 nM) | surviving fraction (ABIRATERONE; 0.5 nM) | surviving fraction (ABIRATERONE; 1 nM) | surviving fraction (ABIRATERONE; 5 nM) | surviving fraction (ABIRATERONE; 10 nM) | surviving fraction (ABIRATERONE; 50 nM) | surviving fraction (ABIRATERONE; 100 nM) | surviving fraction (ABIRATERONE; 500 nM) | surviving fraction (ABIRATERONE; 1000 nM)
1 | CCK81 LARGE INTESTINE | 0.811 ± 0.12 | 0.829 ± 0.13 | 0.892 ± 0.075 | 0.814 ± 0.079 | 0.917 ± 0.0085 | 0.866 ± 0.038 | 0.943 ± 0.088 | 0.83 ± 0.064 | – | – | – | – | – | – | – | –
2 | G292 BONE | 1.04 ± 0.016 | 1.002 ± 0.0081 | 1.04 ± 0.057 | 1.01 ± 0.025 | 1.02 ± 0.072 | 0.987 ± 0.077 | 0.969 ± 0.024 | 0.982 ± 0.046 | 1.02 ± 0.028 | 0.994 ± 0.03 | 1.06 ± 0.037 | 1.04 ± 0.026 | 1.05 ± 0.038 | 1.05 ± 0.018 | 1.03 ± 0.034 | 1.01 ± 0.029
3 | HCC38 BREAST | 0.974 ± 0.11 | 0.913 ± 0.14 | 1.02 ± 0.16 | 1.16 ± 0.23 | 0.851 ± 0.19 | 0.874 ± 0.042 | 0.759 ± 0.11 | 0.805 ± 0.12 | 1.21 ± 0.22 | 1.24 ± 0.14 | 1.22 ± 0.31 | 1.29 ± 0.38 | 1.18 ± 0.41 | 1.32 ± 0.18 | 1.16 ± 0.12 | 1 ± 0.14
4 | HCC70 BREAST | 1.17 ± 0.049 | 1.05 ± 0.073 | 1.1 ± 0.046 | 1.14 ± 0.02 | 1.15 ± 0.024 | 1.18 ± 0.038 | 1.25 ± 0.029 | 1.22 ± 0.06 | 1.1 ± 0.069 | 1.02 ± 0.088 | 1.09 ± 0.026 | 1.11 ± 0.055 | 1.15 ± 0.13 | 1.14 ± 0.017 | 1.03 ± 0.076 | 0.949 ± 0.098
5 | HMLE3 BREAST | 1.11 ± 0.098 | 1.1 ± 0.057 | 1.15 ± 0.034 | 1.13 ± 0.061 | 1.12 ± 0.087 | 1.02 ± 0.078 | 0.961 ± 0.12 | 0.831 ± 0.084 | 0.965 ± 0.017 | 1.01 ± 0.04 | 1.04 ± 0.063 | 1.04 ± 0.051 | 1.12 ± 0.079 | 1.02 ± 0.084 | 1.02 ± 0.063 | 1.04 ± 0.04
6 | HMT3552 BREAST | 0.982 ± 0.13 | 0.975 ± 0.012 | 0.984 ± 0.037 | 1.04 ± 0.04 | 1.03 ± 0.059 | 1.04 ± 0.013 | 1.3 ± 0.11 | 1.24 ± 0.06 | 1.05 | 1.02 | 1.01 | 1.09 | 1.08 | 1.07 | 1.32 | 1.24
7 | HS57T BREAST | 1.06 ± 0.044 | 1.08 ± 0.026 | 1.12 ± 0.056 | 1.09 ± 0.063 | 1.03 ± 0.092 | 1.05 ± 0.028 | 1.03 ± 0.031 | 1 ± 0.087 | 1.06 ± 0.023 | 1.16 ± 0.059 | 1.12 ± 0.038 | 1.1 ± 0.03 | 1.24 ± 0.06 | 1.17 ± 0.071 | 1.08 ± 0.031 | 1.04 ± 0.1
8 | HS578T BREAST | 0.899 ± 0.11 | 0.861 ± 0.083 | 0.977 ± 0.27 | 0.954 ± 0.11 | 1.06 ± 0.16 | 0.916 ± 0.057 | 0.877 ± 0.064 | 1.01 ± 0.17 | 1.06 ± 0.16 | 0.858 ± 0.12 | 0.945 ± 0.12 | 0.924 ± 0.2 | 1.04 ± 0.091 | 0.996 ± 0.051 | 0.985 ± 0.065 | 0.94 ± 0.037
